What follows are molecules tested against PAR4 (Homo sapiens (Human), UniProt Q96RI0) (assay: FLIPR assay in PAR4-expressing HEK293 cells (calcium mobilization)). Conditions: H-Ala-Phe(4-F)-Pro-Gly-Trp-Leu-Val-Lys-Asn-Gly-NH2-induced calcium mobilization, PAR4 antagonist activity.
Assay type: cell-based
From the text: The FLIPR assay is an exemplary in vitro assay for measuring the activity of the PAR4 antagonists of the present invention. In this assay, intracellular calcium mobilization is induced in PAR4 expressing cells by a PAR4 agonist and calcium mobilization is monitored.
HEK293 cells stably expressing PAR4 were generated by a standard method of transfection of human PAR4 (F2R23) cDNA expression vector and selected based on PAR4 protein expression or mRNA expression. […] Therefore, the same cells were also used to determine selectivity against PAR1 and agonist activity for both receptors.
FLIPR-based calcium mobilization assay in HEK293 cells was used to measure PAR4 antagonism, agonism, and selectivity against PAR1. […] Counter screens for agonist activity and PAR1 antagonist activity were also performed. Briefly, PAR1/PAR4-expressing HEK293 cells were grown in DMEM (Life Technology, Grand Island, N.Y.) containing 10% heat-inactivated FBS, 1% Penicillin-Streptomycin, 10 μg/mL blasticidin, and 100 μg/mL Zeocin at 37° C. with 5% CO2. Cells were plated overnight prior to the experiment in a black 384-well Purecoat Amine clear bottom plate (Becton Dickinson Biosciences, San Jose, Calif.) at 10,000 cells/well in 30 μL growth medium and incubated in a humidified chamber at 37° C. with 5% CO2 overnight. Prior to compound addition, the cell medium was replaced with 40 μL of 1× calcium and magnesium-containing Hank's Balanced Saline Solution (HBSS) (with 20 mM HEPES) and 1:1000 diluted fluorescent calcium indicator (Codex Biosolutions, Gaithersburg, Md.). After a 30 minute incubation period at 37° C. and a further 30 minute incubation and equilibration period at room temperature, 20 μL test compound (diluted in 1×HBSS buffer) was added at various concentrations at 0.17% dimethyl sulfoxide (DMSO) final concentration. Changes in fluorescence intensity were measured using a Functional Drug Screening System (FDSS, Hamamatsu, Japan) to determine agonist activities. The cells were then incubated for 30 minutes at room temperature followed by addition of 20 μL of agonist peptide for antagonist activity measurement. […] Compound potency was derived from 11-point concentration-response curves.

PAR4, sequence (Q96RI0 18-385): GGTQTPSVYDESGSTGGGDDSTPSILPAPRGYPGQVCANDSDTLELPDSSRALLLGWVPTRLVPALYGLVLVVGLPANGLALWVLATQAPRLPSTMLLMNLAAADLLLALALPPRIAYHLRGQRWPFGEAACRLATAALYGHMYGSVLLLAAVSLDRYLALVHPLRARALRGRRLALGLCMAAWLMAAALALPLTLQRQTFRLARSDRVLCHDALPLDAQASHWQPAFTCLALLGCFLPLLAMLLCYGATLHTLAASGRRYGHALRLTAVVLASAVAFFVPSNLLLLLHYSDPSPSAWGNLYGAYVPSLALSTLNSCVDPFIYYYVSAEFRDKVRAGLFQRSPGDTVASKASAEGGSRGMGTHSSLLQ

| Compound | IC50 [µM] |
| --- | --- |
| COc1cc(OCc2csc(-c3ccc(C(=O)OC(C)(C)C)cc3)n2)c2sc(-c3cn4nc(C)sc4n3)nc2c1 [Example 1, tert-Butyl 4-(4-(((5-methoxy-2-(2-methylimidazo[2,1-b][1,3,4]thiadiazol-6-yl)benzo[d]thiazol-7-yl)oxy)methyl)thiazol-2-yl)benzoate] | 2.4 |
| COc1cc(OCc2csc(-c3ccc(C(=O)N4CCC[C@H](O)C4)cc3)n2)c2sc(-c3cn4nc(C)sc4n3)nc2c1 [Example 4] | 4.2 |
| COc1cc(OCc2csc(-c3ccc(C(=O)N(CCO)C(C)(C)C)cc3)n2)c2sc(-c3cn4nc(C)sc4n3)nc2c1 [Example 7] | 30 |
| COc1cc(OCc2csc(-c3ccc(C(=O)N4CC[C@@H](CO)C4)cc3)n2)c2sc(-c3cn4nc(C)sc4n3)nc2c1 [Example 8] | 1.8 |
| COc1cc(OCc2csc(-c3ccc(C(=O)N4CCOC[C@H]4CO)cc3)n2)c2sc(-c3cn4nc(C)sc4n3)nc2c1 [Example 9, (R)-(3-(Hydroxymethyl)morpholino)(4-(4-(((5-methoxy-2-(2-methylimidazo[2,1-b][1,3,4]thiadiazol-6-yl)benzo[d]thiazol-7-yl)oxy)methyl)thiazol-2-yl)phenyl)methanone] | 0.33 |
| COc1cc(OCc2csc(-c3ccc(C(=O)N4CCOC[C@@H]4CO)cc3)n2)c2sc(-c3cn4nc(C)sc4n3)nc2c1 [Example 11, (S)-(3-(Hydroxymethyl)morpholino)(4-(4-(((5-methoxy-2-(2-methylimidazo[2,1-b][1,3,4]thiadiazol-6-yl)benzo[d]thiazol-7-yl)oxy)methyl)thiazol-2-yl)phenyl)methanone] | 1.4 |
| COc1cc(OCc2csc(-c3ccc(C(=O)O)cc3)n2)c2sc(-c3cn4nc(C(C)(F)F)sc4n3)nc2c1 [Example 14, 4-(4-(((2-(2-(1,1-Difluoroethyl)imidazo[2,1-b][1,3,4]thiadiazol-6-yl)-5-methoxybenzo[d]thiazol-7-yl)oxy)methyl)thiazol-2-yl)benzoic acid] | 87 |
| COc1cc(OCc2csc(-c3ccc(C(=O)N4CCC[C@H](O)C4)cc3)n2)c2sc(-c3cn4nc(C(C)(F)F)sc4n3)nc2c1 [Example 16, (S)-(4-(4-(((2-(2-(1,1-Difluoroethyl)imidazo[2,1-b][1,3,4]thiadiazol-6-yl)-5-methoxybenzo[d]thiazol-7-yl)oxy)methyl)thiazol-2-yl)phenyl)(3-hydroxypiperidin-1-yl)methanone] | 15 |
| COc1cc(OCc2csc(-c3ccc(C(=O)N(CCO)C(C)(C)C)cc3)n2)c2sc(-c3cn4nc(C(C)(F)F)sc4n3)nc2c1 [Example 19, N-(tert-Butyl)-4-(4-(((2-(2-(1,1-difluoroethyl)imidazo[2,1-b][1,3,4]thiadiazol-6-yl)-5-methoxybenzo[d]thiazol-7-yl)oxy)methyl)thiazol-2-yl)-N-(2-hydroxyethyl)benzamide] | 81 |
| COc1cc(OCc2csc(-c3ccc(C(=O)N4CC[C@@H](CO)C4)cc3)n2)c2sc(-c3cn4nc(C(C)(F)F)sc4n3)nc2c1 [Example 20, (R)-(4-(4-(((2-(2-(1,1-Difluoroethyl)imidazo[2,1-b][1,3,4]thiadiazol-6-yl)-5-methoxybenzo[d]thiazol-7-yl)oxy)methyl)thiazol-2-yl)phenyl)(3-(hydroxymethyl)pyrrolidin-1-yl)methanone] | 1.2 |
| COc1cc(OCc2csc(-c3ccc(C(=O)N4CCOC[C@H]4CO)cc3)n2)c2sc(-c3cn4nc(C(C)(F)F)sc4n3)nc2c1 [Example 21, (R)-(4-(4-(((2-(2-(1,1-Difluoroethyl)imidazo[2,1-b][1,3,4]thiadiazol-6-yl)-5-methoxybenzo[d]thiazol-7-yl)oxy)methyl)thiazol-2-yl)phenyl)(3-(hydroxymethyl)morpholino)methanone] | 0.92 |
| COc1cc(OCc2csc(-c3ccc(C(=O)N(C)C4CCOCC4)cc3)n2)c2sc(-c3cn4nc(C(C)(F)F)sc4n3)nc2c1 [Example 22, 4-(4-(((2-(2-(1,1-Difluoroethyl)imidazo[2,1-b][1,3,4]thiadiazol-6-yl)-5-methoxybenzo[d]thiazol-7-yl)oxy)methyl)thiazol-2-yl)-N-methyl-N-(tetrahydro-2H-pyran-4-yl)benzamide] | 0.76 |

The remaining lines, values ahead:

| IC50 [µM] | Compound |
| --- | --- |
| 45 | COc1cc(OCc2csc(-c3ccc(C(=O)O)cc3)n2)c2sc(-c3cn4nc(C)sc4n3)nc2c1 [Example 2, 4-(4-(((5-Methoxy-2-(2-methylimidazo[2,1-b][1,3,4]thiadiazol-6-yl)benzo[d]thiazol-7-yl)oxy)methyl)thiazol-2-yl)benzoic acid] |
| 3.6 | COc1cc(OCc2csc(-c3ccc(C(=O)N(C)[C@H]4CCOC4)cc3)n2)c2sc(-c3cn4nc(C)sc4n3)nc2c1 [Example 3, (S)-4-(4-(((5-methoxy-2-(2-methylimidazo[2,1-b][1,3,4]thiadiazol-6-yl)benzo[d]thiazol-7-yl)oxy)methyl)thiazol-2-yl)-N-methyl-N-(tetrahydrofuran-3-yl)benzamide] |
| 1.1 | COc1cc(OCc2csc(-c3ccc(C(=O)N(C)CC#N)cc3)n2)c2sc(-c3cn4nc(C)sc4n3)nc2c1 [Example 5, N—(Cyanomethyl)-4-(4-(((5-methoxy-2-(2-methylimidazo[2,1-b][1,3,4]thiadiazol-6-yl)benzo[d]thiazol-7-yl)oxy)methyl)thiazol-2-yl)-N-methylbenzamide] |
| 3.8 | COc1cc(OCc2csc(-c3ccc(C(=O)N(C)C)cc3)n2)c2sc(-c3cn4nc(C)sc4n3)nc2c1 [Example 6, 4-(4-(((5-Methoxy-2-(2-methylimidazo[2,1-b][1,3,4]thiadiazol-6-yl)benzo[d]thiazol-7-yl)oxy)methyl)thiazol-2-yl)-N,N-dimethylbenzamide] |
| 0.98 | COc1cc(OCc2csc(-c3ccc(C(=O)N(C)C4CCOCC4)cc3)n2)c2sc(-c3cn4nc(C)sc4n3)nc2c1 [Example 10, 4-(4-(((5-Methoxy-2-(2-methylimidazo[2,1-b][1,3,4]thiadiazol-6-yl)benzo[d]thiazol-7-yl)oxy)methyl)thiazol-2-yl)-N-methyl-N-(tetrahydro-2H-pyran-4-yl)benzamide] |
| 3.7 | COc1cc(OCc2csc(-c3ccc(C(=O)N(C)[C@H]4CCOC4)cc3)n2)c2sc(-c3cn4nc(C(C)(F)F)sc4n3)nc2c1 [Example 15, (S)-4-(4-(((2-(2-(1,1-Difluoroethyl)imidazo[2,1-b][1,3,4]thiadiazol-6-yl)-5-methoxybenzo[d]thiazol-7-yl)oxy)methyl)thiazol-2-yl)-N-methyl-N-(tetrahydrofuran-3-yl)benzamide] |
| 2.6 | COc1cc(OCc2csc(-c3ccc(C(=O)N(C)CC#N)cc3)n2)c2sc(-c3cn4nc(C(C)(F)F)sc4n3)nc2c1 [Example 17, N—(Cyanomethyl)-4-(4-(((2-(2-(1,1-difluoroethyl)imidazo[2,1-b][1,3,4]thiadiazol-6-yl)-5-methoxybenzo[d]thiazol-7-yl)oxy)methyl)thiazol-2-yl)-N-methylbenzamide] |
| 5.1 | COc1cc(OCc2csc(-c3ccc(C(=O)N(C)C)cc3)n2)c2sc(-c3cn4nc(C(C)(F)F)sc4n3)nc2c1 [Example 18, 4-(4-(((2-(2-(1,1-difluoroethyl)imidazo[2,1-b][1,3,4]thiadiazol-6-yl)-5-methoxybenzo[d]thiazol-7-yl)oxy)methyl)thiazol-2-yl)-N,N-dimethylbenzamide] |
| 2.6 | COc1cc(OCc2csc(-c3ccc(C(=O)N(C)[C@H]4CCOC4)cc3)n2)c2sc(-c3cn4nc(C5CC5)sc4n3)nc2c1 [Example 25, (S)-4-(4-(((2-(2-Cyclopropylimidazo[2,1-b][1,3,4]thiadiazol-6-yl)-5-methoxybenzo[d]thiazol-7-yl)oxy)methyl)thiazol-2-yl)-N-methyl-N-(tetrahydrofuran-3-yl)benzamide] |
| 9.1 | COc1cc(OCc2csc(-c3ccc(C(=O)N4CCC[C@H](O)C4)cc3)n2)c2sc(-c3cn4nc(C5CC5)sc4n3)nc2c1 [Example 26, (S)-(4-(4-(((2-(2-Cyclopropylimidazo[2,1-b][1,3,4]thiadiazol-6-yl)-5-methoxybenzo[d]thiazol-7-yl)oxy)methyl)thiazol-2-yl)phenyl)(3-hydroxypiperidin-1-yl)methanone] |
| 1.2 | COc1cc(OCc2csc(-c3ccc(C(=O)N(C)CC#N)cc3)n2)c2sc(-c3cn4nc(C5CC5)sc4n3)nc2c1 [Example 27, N-(Cyanomethyl)-4-(4-(((2-(2-cyclopropylimidazo[2,1-b][1,3,4]thiadiazol-6-yl)-5-methoxybenzo[d]thiazol-7-yl)oxy)methyl)thiazol-2-yl)-N-methylbenzamide] |
| 3.7 | COc1cc(OCc2csc(-c3ccc(C(=O)N(C)C)cc3)n2)c2sc(-c3cn4nc(C5CC5)sc4n3)nc2c1 [Example 28, 4-(4-(((2-(2-Cyclopropylimidazo[2,1-b][1,3,4]thiadiazol-6-yl)-5-methoxybenzo[d]thiazol-7-yl)oxy)methyl)thiazol-2-yl)-N,N-dimethylbenzamide] |

From US10238638B2, “Benzothiazole and benzothiophene compounds” (Bristol-Myers Squibb Company, priority 2015, dated 2019)
